Columns and labels:
Type in all cases: in vivo
Setaria viridis = test: Test Example 4: herbicidal effect by soil treatment (symbol G); conditions: application herbicide amount 320 g/ha
How it was run: (§1)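 Seeds were sown in sterilized diluvial soil, covered with about 1.5 cm of soil, and the soil surface was sprayed with a water-diluted emulsion of the compound at a predetermined rate. Plants grew in a greenhouse at 25° C. to 30° C.; effects were scored visually 3 weeks after application.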

Lolium multiflorum Lam. = test: Test Example 4: herbicidal effect by soil treatment (symbol K); conditions: application herbicide amount 320 g/ha
How it was run: as §1

Alopecurus myosuroides = test: Test Example 4: herbicidal effect by soil treatment (symbol J); conditions: application herbicide amount 320 g/ha
How it was run: as §1

Leptochloa chinensis = test: Test Example 3: herbicidal effect by foliage application, Wagner pot (symbol D); conditions: application herbicide amount 320 g/ha
How it was run: (§2)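 Rating at 3 weeks post-spray, by defined criteria. Treatment: emulsion diluted with water to a predetermined amount, applied evenly to foliage of 14-day-old plants raised in alluvial soil flooded 0.1–0.5 cm deep at 25–30 °C, rice co-sown.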

Cyperus difformis = test: Test Example 3: herbicidal effect by foliage application, Wagner pot (symbol E); conditions: application herbicide amount 320 g/ha
How it was run: as §2

Chenopodium album [1] = test: Test Example 4: herbicidal effect by soil treatment (symbol O); conditions: application herbicide amount 320 g/ha
How it was run: as §1

Avena fatua [2] = test: Test Example 5: herbicidal effect by foliage application, plastic box (symbol I); conditions: 320 g/ha, 3 weeks after application
How it was run: (§3)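 Greenhouse foliar test: seedlings at 14 days, grown 25° C. to 30° C. in sterilized diluvial soil; compound applied as an aqueous dilution of an emulsion; response read 3 weeks after spraying.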

Stellaria media = test: Test Example 5: herbicidal effect by foliage application, plastic box (symbol P); conditions: 320 g/ha, 3 weeks after application
How it was run: as §3

Avena fatua [3] = test: Test Example 4: herbicidal effect by soil treatment (symbol I); conditions: application herbicide amount 320 g/ha
How it was run: as §1

Galium spurium = test: Test Example 4: herbicidal effect by soil treatment (symbol Q); conditions: application herbicide amount 320 g/ha
How it was run: as §1

[4] = test system: directly sowed rice plant; test: Test Example 3: effect on crop by foliage application, Wagner pot (symbol b); conditions: application herbicide amount 320 g/ha
How it was run: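 Alluvial soil in a 1/10000-are Wagner pot was flooded to a water depth of 0.1–0.5 cm. Echinochloa crus-galli var. crus-galli, Leptochloa chinensis, Cyperus difformis and rice were sown into it and grown in a greenhouse at 25–30 °C.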

Abutilon theophrasti = test: Test Example 4: herbicidal effect by soil treatment (symbol M); conditions: application herbicide amount 320 g/ha
How it was run: as §1

rice = test: Test Example 4: effect on crop by soil treatment (symbol b); conditions: application herbicide amount 320 g/ha
How it was run: (§4)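 Sterilized diluvial soil, spot sowing, ~1.5 cm soil cover; greenhouse 25–30° C.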

wheat = test: Test Example 4: effect on crop by soil treatment (symbol e); conditions: application herbicide amount 320 g/ha
How it was run: as §4

Amaranthus retroflexus = test: Test Example 4: herbicidal effect by soil treatment (symbol N); conditions: application herbicide amount 320 g/ha
How it was run: as §1

Chenopodium album [5] = test: Test Example 5: herbicidal effect by foliage application, plastic box (symbol O); conditions: 320 g/ha, 3 weeks after application
How it was run: as §3

[6] = test system: Echinochloa oryzacola Vasing.; test: Test Example 2: herbicidal activity, application during weed generation in submerged conditions (symbol A); conditions: Table 23; application herbicide amount 320 g/ha; grade 0-5 by criteria of Test Example 1
How it was run: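 Flooded-soil post-emergence test: emulsion of compound, water-diluted to target rate, applied to paddy water surface at 1–2 leaf stage of mixed-sown weeds (alluvial soil, 4 cm water, 25–30° C. greenhouse); visual rating 3 weeks after application.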

corn = test: Test Example 5: effect on crop by foliage application, plastic box (symbol c); conditions: 320 g/ha, 3 weeks after application
How it was run: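 Diluvial soil, sterilized and boxed (21 × 13 × 7 cm), received spot-sown seed covered by about 1.5 cm soil; plants were then greenhouse-grown at 25–30° C.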

| SMILES | Herbicidal effect grade, G: Setaria viridis (Setaria viridis) | Herbicidal effect grade, K: Lolium multiflorum Lam. (Lolium multiflorum Lam.) | Herbicidal effect grade, J: Alopecurus myosuroides (Alopecurus myosuroides) | Herbicidal effect grade, O: Chenopodium album (Chenopodium album [1]) | I: Avena fatua, herbicidal effect (criteria of Test Example 1) (Avena fatua [2]) | P: Stellaria media, herbicidal effect (criteria of Test Example 1) (Stellaria media) | Herbicidal effect grade, I: Avena fatua (Avena fatua [3]) | Herbicidal effect grade, Q: Galium spurium (Galium spurium) | Herbicidal effect grade, M: Abutilon theophrasti (Abutilon theophrasti) | Effect on crop grade, b: directly sowed rice plant (rice) | Effect on crop grade, e: wheat (wheat) | Herbicidal effect grade, N: Amaranthus retroflexus (Amaranthus retroflexus) | O: Chenopodium album, herbicidal effect (criteria of Test Example 1) (Chenopodium album [5]) | herbicidal effect on D (Leptochloa chinensis), grade 0-5 (Leptochloa chinensis) | Herbicidal effect grade, A: Echinochloa oryzacola Vasing. [6] | effect on crop b (directly sowed rice plant), grade 0-5 [4] | c: corn, effect on crop (criteria of Test Example 1) (corn) | also measured |
| --- | --- | --- | --- | --- | --- | --- | --- | --- | --- | --- | --- | --- | --- | --- | --- | --- | --- | --- |
| COc1cc(Br)cc(F)c1C1=C(O)CC(CC(C)=O)C1=O (stereo not drawn) [7-029] | 4 (Herbicidal ratio of 70% or higher and lower than 90%) | 3 (Herbicidal ratio of 40% or higher and lower than 70%) | 1 (Herbicidal ratio of 5% or higher and lower than 20%) | 0 (Herbicidal ratio of 5% or lower (almost no effect)) | 3 (Herbicidal ratio of 40% or higher and lower than 70%) | 0 (Herbicidal ratio of 5% or lower (almost no effect)) | 0 (Herbicidal ratio of 5% or lower (almost no effect)) | 0 (Herbicidal ratio of 5% or lower (almost no effect)) | 0 (Herbicidal ratio of 5% or lower (almost no effect)) | 1 (Herbicidal ratio of 5% or higher and lower than 20%) | 0 (Herbicidal ratio of 5% or lower (almost no effect)) | 0 (Herbicidal ratio of 5% or lower (almost no effect)) | 0 (Herbicidal ratio of 5% or lower (almost no effect)) |  |  |  |  | D (Leptochloa chinensis) herbicidal effect grade (Leptochloa chinensis; Table 24): 4 (Herbicidal ratio of 70% or higher and lower than 90%); E herbicidal effect grade (Cyperus difformis; Table 24): 0 (Herbicidal ratio of 5% or lower (almost no effect)); b (directly sowed rice plant) effect on crop grade ([4]; Table 24): 0 (Herbicidal ratio of 5% or lower (almost no effect)) |
| CON=C(C)CC1CC(O)=C(c2c(F)cc(-c3ccccc3)cc2OC)C1=O (stereo not drawn) [6-107] | 5 (Herbicidal ratio of 90% or more (almost completely withered)) | 1 (Herbicidal ratio of 5% or higher and lower than 20%) | 5 (Herbicidal ratio of 90% or more (almost completely withered)) | 4 (Herbicidal ratio of 70% or higher and lower than 90%) | 5 (Herbicidal ratio of 90% or more (almost completely withered)) | 2 (Herbicidal ratio of 20% or higher and lower than 40%) | 3 (Herbicidal ratio of 40% or higher and lower than 70%) | 2 (Herbicidal ratio of 20% or higher and lower than 40%) | 4 (Herbicidal ratio of 70% or higher and lower than 90%) | 5 (Herbicidal ratio of 90% or more (almost completely withered)) | 4 (Herbicidal ratio of 70% or higher and lower than 90%) |  | 4 (Herbicidal ratio of 70% or higher and lower than 90%) | 5 (Herbicidal ratio of 90% or more (almost completely withered)) | 5 (Herbicidal ratio of 90% or more (almost completely withered)) | 5 (Herbicidal ratio of 90% or more (almost completely withered)) | 5 (Herbicidal ratio of 90% or more (almost completely withered)) |  |
| CON=C(C)C(C)C1CC(O)=C(c2c(C)cc(Br)cc2OC)C1=O (stereo not drawn) [6-113] | 5 (Herbicidal ratio of 90% or more (almost completely withered)) | 5 (Herbicidal ratio of 90% or more (almost completely withered)) | 5 (Herbicidal ratio of 90% or more (almost completely withered)) | 0 (Herbicidal ratio of 5% or lower (almost no effect)) | 5 (Herbicidal ratio of 90% or more (almost completely withered)) | 0 (Herbicidal ratio of 5% or lower (almost no effect)) | 0 (Herbicidal ratio of 5% or lower (almost no effect)) | 0 (Herbicidal ratio of 5% or lower (almost no effect)) |  | 5 (Herbicidal ratio of 90% or more (almost completely withered)) | 0 (Herbicidal ratio of 5% or lower (almost no effect)) | 0 (Herbicidal ratio of 5% or lower (almost no effect)) | 2 (Herbicidal ratio of 20% or higher and lower than 40%) | 5 (Herbicidal ratio of 90% or more (almost completely withered)) | 5 (Herbicidal ratio of 90% or more (almost completely withered)) | 5 (Herbicidal ratio of 90% or more (almost completely withered)) | 5 (Herbicidal ratio of 90% or more (almost completely withered)) | herbicidal effect on E, grade 0-5 (Cyperus difformis): 5 (Herbicidal ratio of 90% or more (almost completely withered)) |
| CON=C(C)CC1CC(O)=C(c2c(C)cc(-c3ccsc3)cc2C)C1=O (stereo not drawn) [6-106] |  | 3 (Herbicidal ratio of 40% or higher and lower than 70%) | 3 (Herbicidal ratio of 40% or higher and lower than 70%) | 0 (Herbicidal ratio of 5% or lower (almost no effect)) | 3 (Herbicidal ratio of 40% or higher and lower than 70%) | 3 (Herbicidal ratio of 40% or higher and lower than 70%) | 3 (Herbicidal ratio of 40% or higher and lower than 70%) | 0 (Herbicidal ratio of 5% or lower (almost no effect)) | 0 (Herbicidal ratio of 5% or lower (almost no effect)) | 1 (Herbicidal ratio of 5% or higher and lower than 20%) | 0 (Herbicidal ratio of 5% or lower (almost no effect)) | 0 (Herbicidal ratio of 5% or lower (almost no effect)) | 0 (Herbicidal ratio of 5% or lower (almost no effect)) | 5 (Herbicidal ratio of 90% or more (almost completely withered)) | 5 (Herbicidal ratio of 90% or more (almost completely withered)) | 5 (Herbicidal ratio of 90% or more (almost completely withered)) | 5 (Herbicidal ratio of 90% or more (almost completely withered)) |  |
| CON=C(C)CC1CC(OC(=O)N(C)C)=C(c2c(C)cc(C)cc2OC)C1=O (stereo not drawn) [6-109] |  | 5 (Herbicidal ratio of 90% or more (almost completely withered)) | 5 (Herbicidal ratio of 90% or more (almost completely withered)) | 0 (Herbicidal ratio of 5% or lower (almost no effect)) | 5 (Herbicidal ratio of 90% or more (almost completely withered)) | 0 (Herbicidal ratio of 5% or lower (almost no effect)) | 0 (Herbicidal ratio of 5% or lower (almost no effect)) | 0 (Herbicidal ratio of 5% or lower (almost no effect)) | 0 (Herbicidal ratio of 5% or lower (almost no effect)) | 1 (Herbicidal ratio of 5% or higher and lower than 20%) | 0 (Herbicidal ratio of 5% or lower (almost no effect)) | 0 (Herbicidal ratio of 5% or lower (almost no effect)) | 0 (Herbicidal ratio of 5% or lower (almost no effect)) | 4 (Herbicidal ratio of 70% or higher and lower than 90%) | 5 (Herbicidal ratio of 90% or more (almost completely withered)) | 5 (Herbicidal ratio of 90% or more (almost completely withered)) | 5 (Herbicidal ratio of 90% or more (almost completely withered)) |  |
